What all share (type): cell-based
For test [1], the target named is P2X7 receptor (hP2X7) (Homo sapiens (Human), UniProt Q99572). Description: Screen Quest Fluo-8 No Wash Calcium Assay (Bz-ATP-induced Ca2+ influx, FLIPR TETRA). To be noted: HEK-293 cells stably transfected with P2X7 receptor, Fluo-8 calcium, Low Divalent Cation Assay Buffer. Put shortly: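 Read-out is Fluo-8 NW fluorescence recorded over a 5-min kinetic window, reporting Bz-ATP-evoked Ca2+ entry. Cells: HEK-293 stably expressing the P2X7 receptor, dye-loaded for 1 h at room temperature before compound injection.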
Sequence of P2X7 receptor (hP2X7) (Q99572 whole entry): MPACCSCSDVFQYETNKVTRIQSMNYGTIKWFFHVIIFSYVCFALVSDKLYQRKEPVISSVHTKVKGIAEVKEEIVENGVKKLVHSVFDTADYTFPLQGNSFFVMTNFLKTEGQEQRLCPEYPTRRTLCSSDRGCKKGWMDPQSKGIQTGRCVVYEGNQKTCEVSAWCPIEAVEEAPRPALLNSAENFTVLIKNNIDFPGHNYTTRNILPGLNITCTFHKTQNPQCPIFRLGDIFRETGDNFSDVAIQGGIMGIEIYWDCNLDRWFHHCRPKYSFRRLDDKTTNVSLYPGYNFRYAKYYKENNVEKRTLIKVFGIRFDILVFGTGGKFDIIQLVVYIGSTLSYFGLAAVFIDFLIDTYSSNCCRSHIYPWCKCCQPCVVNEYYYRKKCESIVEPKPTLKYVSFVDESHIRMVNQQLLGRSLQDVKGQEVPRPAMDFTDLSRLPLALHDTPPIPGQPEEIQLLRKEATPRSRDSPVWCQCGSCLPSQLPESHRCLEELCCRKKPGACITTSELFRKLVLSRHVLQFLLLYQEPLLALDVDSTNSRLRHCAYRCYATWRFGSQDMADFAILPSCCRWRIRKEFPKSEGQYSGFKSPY

Test [2] addresses T1, P2X7 receptor (Homo sapiens (Human), UniProt Q99572). Description: YO-PRO-1 Uptake Assay (large pore form, Bz-ATP stimulated). As to conditions: HEK-293 cells stably transfected with P2X7 receptor; Bz-ATP EC80 (30 μM); 5 μM YO-PRO-1. The source says:
YO-PRO®-1 is a fluorescent DNA-binding dye with a MW of 374 Da (Molecular Probes®, cat. Y3603). This method is based upon the presumed ability of YO-PRO®-1 to enter through the dilated or “large pore form” of P2X7 receptor and to bind to intracellular DNA whereupon it increases many fold its fluorescence intensity. The dye has an absorption spectrum compatible with excitation at 488 nm by argon laser sources and its emission wavelength is in the range of 515-575 nm. The aim of this assay was to validate the interaction of antagonists with P2X7 receptor using an alternative readout to Ca^2+-sensitive fluorescent dyes.
HEK-293 cells stably transfected with P2X7 receptor were seeded overnight in growth medium at 20,000 cells/well in 384-well plate. 24 hours later, the medium was removed, the cells were washed with Low Divalent Cation Assay Buffer (0.3 mM Ca2+ and 0 mM Mg2+) and then pre-loaded with 20 μL/w of 5 μM YO-PRO®-1 dye. […] fluorescence measurement immediately started. Then, 10 μL/w of test compounds and reference antagonist A438079 at 3×-concentration were injected with the […] and the kinetic response over a period of five minutes was monitored. A second injection of 10 μL/w of 3× Bz-ATP EC80 (30 μM) was performed with the […] and the signal of the emitted fluorescence was recorded for additional 60 minutes. All the experiment was carried out with a Low Divalent Cation Assay Buffer (0.3 mM Ca^2+ and 0 mM Mg^2+).
The effect of the test compounds was measured as percent inhibition vs the reference antagonist and IC50 values were calculated accordingly.

Test [3] addresses T1, P2X7 receptor. Description: human P2X7 channel assay by automated patch-clamp (QPatch 16X). As to conditions: HEK-293 cells expressing P2X7 channels, 100 microM BzATP, held at -80 mV, read-out: hP2X7 (IC50; nM). Here is the method:
In order to directly monitor the block of P2X7 channel, an electrophysiological assay was developed and implemented on the QPatch 16X automated electrophysiology instrument.
HEK-293 cells expressing the P2X7 channels were cultured in modified EMEM.
72 hours before experiment, 5 million cells were seeded onto T225 flasks. Just before the experiment cells were washed twice, detached from the flask with trypsin-EDTA, re-suspended in the suspension solution and placed on the QPatch 16x.
The compounds (20 mM in a 100% DMSO) stored at −20° C. were prepared the day of the experiment (a first dilution 1:20 in 100% DMSO to prepare a 1 mM stock solution, then a 1 microM solution in external solution+a serial dilution 1:10).
The standard whole-cell voltage clamp experiments were performed at room temperature. For these experiments the multihole technology was used and the data were sampled at 2 KHz.
The intracellular solution contained (mM) 135 CsF, 10 NaCl, 1 EGTA, 10 HEPES, (pH 7.2 with CsOH) whereas the extracellular contained (mM) 145 NaCl, 4 KCl, 0.5 MgCl2, 1 CaCl2, 10 HEPES, 10 Glc (pH 7.4 with NaOH).
After establishment of the seal and the passage in the whole cell configuration, the cells were held at −80 mV. The P2XR7 current was evoked by applying 100 microM of BzATP alone (4 times) and then in the presence increasing concentrations of the compound under investigation (1, 10, 100 and 1000 nM).
The pre-incubation periods 5 to 8 contain increasing concentrations of the compound of interest (1, 10, 100 and 1000 nM), as illustrated in Figure (application protocol).
The maximal inward current evoked by BzATP in absence or presence of increasing concentrations of the compounds under investigation was measured and normalized.
Y: normalized response, 100% down to 0%, decreasing as X increases.
Log IC50: same log units as X
HillSlope: slope factor or HS, unitless

T1 sequence (Q99572 whole entry): as above

As to `O=C(NCC(c1scnc1C(F)F)N1CCC(F)(F)CC1)c1cc(-c2ncc(F)cn2)ccc1Cl` (stereo not drawn) [Compound 102, 2-chloro-N-{2-[4-(difluoromethyl)-1,3-thiazol-5-yl]-2-(4,4-difluoropiperidin-1-yl)ethyl}-5-(5-fluoropyrimidin-2-yl)benzamide], the IC50 in test [1] is 60 nM; in test [2], 34 nM; in test [3], 57.1 nM.

On to `Cc1ncoc1C(CNC(=O)c1ccc(-c2ncc(F)cn2)cc1Cl)N1CCc2ccccc2C1` (stereo not drawn) [Compound 57, 2-chloro-4-(5-fluoropyrimidin-2-yl)-N-[2-(4-methyl-1,3-oxazol-5-yl)-2-(1,2,3,4-tetrahydroisoquinolin-2-yl)ethyl]benzamide], for which the values for the IC50 in test [1], in test [2] and in test [3] were 214 nM, 197 nM and 71 nM, respectively.

Consider `O=C(NCC(c1cnc(C2CC2)s1)N1CCC(F)(F)CC1)c1c(F)cccc1Cl` (stereo not drawn) [Compound 88, 2-chloro-N-[2-(2-cyclopropyl-1,3-thiazol-5-yl)-2-(4,4-difluoropiperidin-1-yl)ethyl]-6-fluorobenzamide], for which the IC50 in test [1] turned out to be 36 nM; in test [2], 28 nM; in test [3], 52.1 nM.

As for `Cc1ncsc1C(CNC(=O)c1c(F)cccc1Cl)N1CCC(Oc2ccccc2)CC1` (stereo not drawn) [Compound 60, 2-chloro-6-fluoro-N-[2-(4-methyl-1,3-thiazol-5-yl)-2-(4-phenoxypiperidin-1-yl)ethyl]benzamide], the IC50 in test [1] was determined as 188 nM; in test [2], 79 nM; in test [3], 58.9 nM.

For the molecule `Cc1ncsc1C(CN(C)C(=O)c1cc(-c2ncc(F)cn2)ccc1Cl)N1CCC(F)(F)CC1` (stereo not drawn) [Compound 77, 2-chloro-N-[2-(4,4-difluoropiperidin-1-yl)-2-(4-methyl-1,3-thiazol-5-yl)ethyl]-5-(5-fluoropyrimidin-2-yl)-N-], the half-maximal inhibitory concentration (IC50) came to 1760 nM in test [1] and 183 nM in test [3].

Consider `Cc1cccc(-c2ccc(Cl)c(C(=O)NCC(c3scnc3C)N3CCC(F)(F)CC3)c2)n1` (stereo not drawn) [Compound 74, 2-chloro-N-[2-(4,4-difluoropiperidin-1-yl)-2-(4-methyl-1,3-thiazol-5-yl)ethyl]-5-(6-methylpyridin-2-yl)benzamide], for which the IC50 in test [1] is 55 nM; in test [2], 87 nM; in test [3], 65.2 nM.

In the case of `Cc1ncsc1C(CNC(=O)c1c(F)cccc1Cl)N1CCc2ccccc2C1` (stereo not drawn) [Compound 29, 2-chloro-6-fluoro-N-[2-(4-methyl-1,3-thiazol-5-yl)-2-(1,2,3,4-tetrahydroisoquinolin-2-yl)ethyl]benzamide], the concentration for half-maximal inhibition (IC50) worked out at 130 nM in test [1], 90 nM in test [2] and 36.1 nM in test [3].

On to `Cc1ncsc1C(CNC(=O)c1cc(-c2cnccn2)ccc1Cl)N1CCC(F)(F)CC1` (stereo not drawn) [Compound 72, 2-chloro-N-[2-(4,4-difluoropiperidin-1-yl)-2-(4-methyl-1,3-thiazol-5-yl)ethyl]-5-(pyrazin-2-yl)benzamide], for which the half-inhibitory concentration (IC50) in test [1] was 30 nM; in test [2] it was 60 nM; in test [3] it was 78.1 nM.

Consider `O=C(NCC(c1scnc1C(F)(F)F)N1CCC(F)(F)CC1)c1cc(-c2ncc(F)cn2)ccc1Cl` (stereo not drawn) [Compound 68], for which the values for the IC50 in test [1], in test [2] and in test [3] were 103 nM, 181 nM and 63.1 nM, respectively.

In the case of `Cc1ncsc1C(CNC(=O)c1c(F)cccc1Cl)N1CCOCC1` (stereo not drawn) [Compound 35, 2-chloro-6-fluoro-N-[2-(4-methyl-1,3-thiazol-5-yl)-2-(morpholin-4-yl)ethyl]benzamide], the IC50 in test [1] was 469 nM; in test [2], 4080 nM; in test [3] it was 947 nM.

With `Cc1ncsc1C(CNC(=O)c1cccc2ncccc12)N1CCC(F)(F)CC1` (stereo not drawn) [Compound 33, N-[2-(4,4-difluoropiperidin-1-yl)-2-(4-methyl-1,3-thiazol-5-yl)ethyl]quinoline-5-carboxamide], the IC50 in test [1] was determined as 158 nM; in test [2], 176 nM.

With `O=C(NCC(c1cnc(C2CCC2)s1)N1CCC(F)(F)CC1)c1cc(-c2ncc(F)cn2)ccc1F` (stereo not drawn) [Compound 106, N-[2-(2-cyclobutyl-1,3-thiazol-5-yl)-2-(4,4-difluoropiperidin-1-yl)ethyl]-2-fluoro-5-(5-fluoropyrimidin-2-yl)benzamide], the values for the IC50 in test [1] and in test [2] were 1240 nM and 807 nM, respectively.

Take `O=C(NCC(c1cncs1)N1CCC(F)(F)CC1)c1c(F)cccc1Cl` (stereo not drawn) [Compound 8, 2-chloro-N-[2-(4,4-difluoro-piperidin-1-yl)-2-(1,3-thiazol-5-yl)ethyl]-6-fluoro-benzamide]: the IC50 was determined as 28 nM in test [1] and 389 nM in test [2].

With `Cc1cccc(C)c1C(=O)NCC(c1cncs1)N1CCc2ccccc2C1` (stereo not drawn) [Compound 18, 2,6-dimethyl-N-[2-(1,2,3,4-tetrahydroisoquinolin-2-yl)-2-(1,3-thiazol-5-yl)ethyl]benzamide], the figures for the IC50 in test [1] and in test [2] were 90 nM and 190 nM, respectively.

Turning to `O=C(NCC(c1cnc(C(F)(F)F)s1)N1CCC(F)(F)CC1)c1c(F)cccc1Cl` (stereo not drawn) [Compound 81, 2-chloro-N-[2-(4,4-difluoropiperidin-1-yl)-2-[2-(trifluoromethyl)-1,3-thiazol-5-yl]ethyl]-6-fluorobenzamide], the IC50 stood at 38 nM in test [1] and 16 nM in test [2].

Consider `O=C(NCC(c1cnc(C2CCC2)s1)N1CCC(F)(F)CC1)c1cccc2ncccc12` (stereo not drawn) [Compound 105, N-[2-(2-cyclobutyl-1,3-thiazol-5-yl)-2-(4,4-difluoropiperidin-1-yl)ethyl]quinoline-5-carboxamide], for which the results for the IC50 in test [1] and in test [2] were 292 nM and 135 nM, respectively.

In the case of `CCCc1ncc(C(CNC(=O)c2c(F)cccc2Cl)N2CCC(F)(F)CC2)s1` (stereo not drawn) [Compound 109, 2-chloro-N-[2-(4,4-difluoropiperidin-1-yl)-2-(2-propyl-1,3-thiazol-5-yl)ethyl]-6-fluorobenzamide], the IC50 came out at 78 nM in test [1] and 50 nM in test [2].

As for `Cc1cccc(C)c1C(=O)NCC(c1cnco1)N1CCc2ccccc2C1` (stereo not drawn) [Compound 49, 2,6-dimethyl-N-[2-(1,3-oxazol-5-yl)-2-(1,2,3,4-tetrahydroisoquinolin-2-yl)ethyl]benzamide], the IC50 worked out at 104 nM in test [1] and 945 nM in test [2].

Turning to `O=C(NCC(c1cncs1)N1CCC(F)(F)CC1)c1cc(-c2ncc(F)cn2)ccc1Cl` (stereo not drawn) [Compound 20, 2-chloro-N-[2-(4,4-difluoropiperidin-1-yl)-2-(1,3-thiazol-5-yl)ethyl]-5-(5-fluoropyrimidin-2-yl)-benzamide], the half-maximal inhibitory concentration (IC50) in test [1] was determined as 34 nM; in test [2], 30 nM.

`Cc1nc(C)c(C(CNC(=O)c2cc(-c3ncc(F)cn3)ccc2Cl)N2CCC(F)(F)CC2)o1` (stereo not drawn) [Compound 58, 2-chloro-N-[2-(4,4-difluoropiperidin-1-yl)-2-(2,4-dimethyl-1,3-oxazol-5-yl)ethyl]-5-(5-fluoropyrimidin-2-yl)benzamide]: the IC50 in test [1] came out at 1120 nM; in test [2], 2970 nM.

In the case of `Cc1cccc(C)c1C(=O)NCC(c1scnc1C)N1CCOCC1` (stereo not drawn) [Compound 36, 2,6-dimethyl-N-[2-(4-methyl-1,3-thiazol-5-yl)-2-(morpholin-4-yl)ethyl]benzamide], the results for the IC50 in test [1] and in test [2] were 149 nM and 302 nM, respectively.

The values are drawn from patent publication US9718812B2, “Substituted thiazole or oxazole P2X7 receptor antagonists” (Axxam S.P.A., priority 2014, dated 2017).
